Laboratory results taken from patent US20260315611A1, “LINKER COMPOUNDS AND LIGAND-DRUG CONJUGATES, PREPARATION METHODS AND USES THEREOF” (Biocytogen Pharmaceuticals (Beijing) Co., Ltd., priority 2023, published 2026).

Columns and labels:
Hela = experiment: in vitro killing activity; assay type: cell-based, Human; conditions: 120 h incubation
Procedure: (§1) Different concentrations of compounds CPT-1, CPT-2, CPT-3, CPT-4, Dxd (MedChem Express, Cat #: HY-13631D) and SN38 (MedChem Express, Cat #: HY-13704) were used to treat different human tumor cell lines, mice tumor cell lines, rat tumor cell lines or dog tumor cell lines cultured in a cell culture plate, respectively. And the killing activity was detected after 72 h-120 h incubation by IncuCyte (Sartorius AG, IncuCyte® S3) or MicroplateReader.

HuH-7 = experiment: in vitro killing activity; assay type: cell-based, Human; conditions: 120 h incubation
Procedure: as §1

LOVO = experiment: in vitro killing activity; assay type: cell-based, Human; conditions: 120 h incubation
Procedure: as §1

NCI-H1975 = experiment: in vitro killing activity; assay type: cell-based, Human; conditions: 120 time of incubation
Procedure: as §1

NCI-H226 = experiment: in vitro killing activity; assay type: cell-based, Human; conditions: 120 h incubation
Procedure: as §1

NCI-N87 = experiment: in vitro killing activity; assay type: cell-based, Human; conditions: 120 time of incubation
Procedure: as §1

SW620 = experiment: in vitro killing activity; assay type: cell-based, Human; conditions: 120 h incubation
Procedure: as §1

L6 = experiment: in vitro killing activity; assay type: cell-based, Rat; conditions: 120 h incubation
Procedure: as §1

PC12 = experiment: in vitro killing activity; assay type: cell-based, Rat; conditions: 120 time of incubation
Procedure: as §1

Pgp = conditions: cited from earlier work
A431 cells = experiment: anti-tumor activity in A431 xenograft model; assay type: in vivo, A431 xenograft in B-NDG mice; conditions: 10 mg/kg i.v. BIW x4
Procedure: (§2) The lengths of the long axis and the short axis of the tumor were measured and the volume of the tumor was calculated as 0.5×(long axis)×(short axis)2. […] Ti is the average tumor volume in the treatment group on day i. T0 is the average tumor volume in the treatment group on day zero. Vi is the average tumor volume in the control group on day i. V0 is the average tumor volume in the control group on day zero. T-test was performed for statistical analysis. […] P<0.05 is a threshold to indicate significant difference. The body weights of the mice were also measured throughout the entire administration period.
The ADCs were tested for their effects on tumor growth in vivo in a xenograft model of epidermoid carcinoma. Specifically, about 1×10^6 A431 cells were injected subcutaneously in B-NDG mice. When the tumors in the mice reached a volume of about 200 mm^3, the mice were randomly placed into different groups based on tumor volume. The mice were then injected with PBS, antibody, or ADCs by intravenous (i.v.) administration.

NCI-H292 cells = experiment: anti-tumor activity in NCI-H292 xenograft model; assay type: in vivo, NCI-H292 xenograft in B-NDG mice; conditions: 10 mg/kg i.v. BIW x2
Procedure: as §2
The antibody or ADCs were tested for their effects on tumor growth in vivo in a xenograft model of lung cancer. Specifically, about 5×10^6 NCI-H292 cells were injected subcutaneously in B-NDG mice. When the tumors in the mice reached a volume of about 300 mm^3, the mice were randomly placed into different groups based on tumor volume. The mice were then injected with PBS, antibody, or ADCs by intravenous (i.v.) administration.

A-431 = experiment: in vitro killing activity; assay type: cell-based, Human; conditions: Homo sapiens, A-431; 120 time of incubation
Procedure: as §1

BT474 = experiment: in vitro killing activity; assay type: cell-based, Human; conditions: Homo sapiens, BT-474; 120 time of incubation
Procedure: as §1

BxPC-3 = experiment: in vitro killing activity; assay type: cell-based, Human; conditions: Homo sapiens, BXPC-3; 120 time of incubation
Procedure: as §1

HCC1954 = experiment: in vitro killing activity; assay type: cell-based, Human; conditions: Homo sapiens, HCC1954; 120 time of incubation
Procedure: as §1

HS-746T = experiment: in vitro killing activity; assay type: cell-based, Human; conditions: Homo sapiens, Hs746T; 120 time of incubation
Procedure: as §1

NCI-H1781 = experiment: in vitro killing activity; assay type: cell-based, Human; conditions: Homo sapiens, NCI-H1781; 120 time of incubation
Procedure: as §1

NCI-H2030 = experiment: in vitro killing activity; assay type: cell-based, Human; conditions: Homo sapiens, NCI-H2030; 120 time of incubation
Procedure: as §1

NCI-H69 = experiment: in vitro killing activity; assay type: cell-based, Human; conditions: Homo sapiens, NCI-H69; 120 time of incubation
Procedure: as §1

OVKATE = experiment: in vitro killing activity; assay type: cell-based, Human; conditions: Homo sapiens; 120 time of incubation
Procedure: as §1

PC-3 = experiment: in vitro killing activity; assay type: cell-based, Human; conditions: Homo sapiens, PC-3; 120 time of incubation
Procedure: as §1

Panc 02.03 = experiment: in vitro killing activity; assay type: cell-based, Human; conditions: Homo sapiens, Panc 02.03; 120 time of incubation
Procedure: as §1

SKOV-3 = experiment: in vitro killing activity; assay type: cell-based, Human; conditions: Homo sapiens, SK-OV-3; 120 time of incubation
Procedure: as §1

SW156 = experiment: in vitro killing activity; assay type: cell-based, Human; conditions: Homo sapiens; 120 time of incubation
Procedure: as §1

U-2-OS = experiment: in vitro killing activity; assay type: cell-based, Human; conditions: Homo sapiens, U2OS; 120 time of incubation
Procedure: as §1

CMT-U27 = experiment: in vitro killing activity; assay type: cell-based, Dog; conditions: Canis lupus familiaris; 120 time of incubation
Procedure: as §1

D17 = experiment: in vitro killing activity; assay type: cell-based, Dog; conditions: Canis lupus familiaris, D17; 120 time of incubation
Procedure: as §1

DCOL1 (S+L−) = experiment: in vitro killing activity; assay type: cell-based, Dog; conditions: Canis lupus familiaris; 120 time of incubation
Procedure: as §1

MP-0094-2 = experiment: in vitro killing activity; assay type: cell-based, Dog; conditions: Canis lupus familiaris; 120 time of incubation
Procedure: as §1

MP-0094-3 = experiment: in vitro killing activity; assay type: cell-based, Dog; conditions: Canis lupus familiaris; 120 time of incubation
Procedure: as §1

MP-1044-1 = experiment: in vitro killing activity; assay type: cell-based, Dog; conditions: Canis lupus familiaris; 72 time of incubation
Procedure: as §1

MP-1092-1 = experiment: in vitro killing activity; assay type: cell-based, Dog; conditions: Canis lupus familiaris; 120 time of incubation
Procedure: as §1

B16F10 = experiment: in vitro killing activity; assay type: cell-based, Mice; conditions: Mus musculus, B16-F10; 75 time of incubation
Procedure: as §1

CT26 = experiment: in vitro killing activity; assay type: cell-based, Mice; conditions: Mus musculus, CT26; 96 time of incubation
Procedure: as §1

MC38 = experiment: in vitro killing activity; assay type: cell-based, Mice; conditions: Mus musculus, MC-38; 120 time of incubation
Procedure: as §1

multiple cell lines = experiment: in vitro killing activity, multiple tumor cell lines; assay type: cell-based, human, mice, rat, dog
Procedure: as §1

CCc1c2c(nc3ccc(O)cc13)-c1cc3c(c(=O)n1C2)COC(=O)[C@]3(O)CC [SN38, reference compound] gave an IC50 (Hela) of 6.61 nM, an IC50 (HuH-7) of 2.41 nM and an IC50 (LOVO) of 10.2 nM. For the same molecule, the IC50 (NCI-H1975) was 13.2 nM, the IC50 (NCI-H226) was 20.4 nM and the IC50 (NCI-N87) was 7.39 nM. The IC50 (SW620) was 4.6 nM, the IC50 (L6) was 20.8 nM and the IC50 (PC12) was 5.66 nM. For the same molecule, the Pgp substrate (Pgp) was “Pgp substrates”.

With “Sacituzumab govitecan: humanized anti-TROP2 monoclonal antibody-drug conjugate from Immunomedics, Inc” the “Tumor volume Day 17” value (A431 cells) was 682 ± 71 mm^3, the “Tumor volume Day 31” value (A431 cells) was 1554 ± 144 mm^3 and the “Tumor volume Day 0” value (A431 cells; day of grouping (baseline)) was 197 ± 6 mm^3. The “Tumor volume Day 21” value (NCI-H292 cells) was 428 ± 51 mm^3, the “Tumor volume Day 39” value (NCI-H292 cells) was 893 ± 62 mm^3 and the “Tumor volume Day 0” value (NCI-H292 cells; day of grouping (baseline)) was 297 ± 11 mm^3.

With CC[C@@]1(O)C(=O)OCc2c1cc1n(c2=O)Cc2c-1nc1ccc(N)c3c1c2CCO3 [CPT-2, (S)-4-amino-9-ethyl-9-hydroxy-1,9,12,15-tetrahydro-13H-pyrano[4,3,2-de]pyrano[3′,4′:6,7]indolizino[1,2-b]quinoline-10,13(2H)-dione] the IC50 (A-431) was 2.84 nM, the IC50 (BT474) was 11.9 nM and the IC50 (BxPC-3) was 0.289 nM. The IC50 (HCC1954) was 1.14 nM, the IC50 (HS-746T) was 0.55 nM and the IC50 (Hela; Homo sapiens, HeLa) was 1.41 nM. For the same molecule, the IC50 (HuH-7; Homo sapiens, Huh-7) was 0.662 nM, the IC50 (LOVO; Homo sapiens, LoVo) was 1.15 nM and the IC50 (NCI-H1781) was 0.399 nM. The IC50 (NCI-H1975; Homo sapiens, NCI-H1975) was 1.97 nM, the IC50 (NCI-H2030) was 1.31 nM and the IC50 (NCI-H226; Homo sapiens, NCI-H226) was 2.77 nM. It also gave an IC50 (NCI-H69) of 0.318 nM, an IC50 (NCI-N87; Homo sapiens, NCI-N87) of 1.48 nM and an IC50 (OVKATE) of 2.04 nM. It also gave an IC50 (PC-3) of 1.97 nM, an IC50 (Panc 02.03) of 0.301 nM and an IC50 (SKOV-3) of 1.96 nM. It also gave an IC50 (SW156) of 0.615 nM, an IC50 (SW620; Homo sapiens, SW-620) of 0.824 nM and an IC50 (U-2-OS) of 1.41 nM. The IC50 (CMT-U27) was 1.28 nM, the IC50 (D17) was 1.29 nM and the IC50 (DCOL1 (S+L−)) was 2.29 nM. It also gave an IC50 (MP-0094-2) of 4.69 nM, an IC50 (MP-0094-3) of 7.15 nM and an IC50 (MP-1044-1) of 8.53 nM. For the same molecule, the IC50 (MP-1092-1) was 1.75 nM, the IC50 (B16F10) was 5.47 nM and the IC50 (CT26) was 5.63 nM. It also gave an IC50 (MC38) of 9.57 nM, an IC50 (L6; Rattus norvegicus, L6) of 3.88 nM and an IC50 (PC12; Rattus norvegicus, PC-12) of 1.77 nM. For the same molecule, the “in vitro killing activity” value (multiple cell lines) was “good in vitro killing activity” and the “tumor cell inhibition effect compared with Dxd and SN38” value (multiple cell lines) was “higher tumor cell inhibition effect than Dxd and SN38”.
